For data set [1] the following is noted: cited from earlier work; for solubility: water at 37° C.
Data set [2] can be described thus: cooling effect: instant fall of temperature when powder is added to water. The data set is classed as physicochemical. The following applies: 150 g of powder added to 50 ml of water at 37° C. The protocol: A suitable monosaccharide polyol is preferably selected from the group consisting of xylitol, erythritol, sorbitol or a combination thereof. […] (Instant fall of temperature when 150 g of powder are added to 50 ml of water at 37° C.).

Each structure is given as a SMILES string.

`OC[C@@H](O)[C@@H](O)CO` [Erythritol]: the “water solubility compared with other polyols” value in data set [1] (anhydride crystals) is reported as “less water soluble”.

For the compound `OC[C@@H](O)[C@@H](O[C@H]1O[C@H](CO)[C@@H](O)[C@H](O)[C@H]1O)[C@H](O)[C@@H](O)CO` [maltitol, reference compound], the solubility entry in data set [1] is “less than 205 g/100 g”.

As for `OC[C@@H](O)[C@@H](O)[C@H](O)[C@@H](O)CO` [sorbitol], in data set [2], the “measured cooling effect (instant fall of temperature)” value is “about −22 °C”. In addition, in data set [1], the solubility is 330–340 g/100 g.

Consider `OC[C@H]1O[C@@](CO)(O[C@H]2O[C@H](CO)[C@@H](O)[C@H](O)[C@H]2O)[C@@H](O)[C@@H]1O` [sucrose, reference compound], for which the solubility entry in data set [1] is “under 230 g/100 g”.

With `OC[C@@H](O)[C@H](O)[C@@H](O)CO` [xylitol], the “measured cooling effect (instant fall of temperature)” value in data set [2] was “about −20 °C”. Also, in data set [1], the solubility is recorded as 250–260 g/100 g.

The values are drawn from US7214396B2, “Confectionery product containing functional ingredients and method of making and using” (Nestec S.A., priority 2000, dated 2007).
